Source: patent US8450308B2 (Vitae Pharmaceuticals, Inc., priority 2008, dated 2013)

Columns and labels:
[1] = target: T1, truncated human beta-secretase (residues 1-458, His6-tagged at the C-terminus) (Homo sapiens, UniProt P56817); test: BACE fluorescence quench assay; format: biochemical; conditions: in vitro enzyme activity, BACE fluorescence assay, pH 4.5; read-out: IC50
T1 construct: truncated human beta-secretase (residues 1-458, His6-tagged at the C-terminus); His6 (C); made in house; host or cells: insect cells D. melanogaster S2 (baculovirus expression system (so in the source))

[2] = BACE cell assay: soluble Amyloid Beta 1-40 (Aβ 1-40) in culture media of H4-APPsw cells; format: cell-based; conditions: in vitro cell activity, H4-APPsw cells, secreted Aβ 1-40, overnight treatment; read-out: IC50

T1 sequence (P56817 22-458): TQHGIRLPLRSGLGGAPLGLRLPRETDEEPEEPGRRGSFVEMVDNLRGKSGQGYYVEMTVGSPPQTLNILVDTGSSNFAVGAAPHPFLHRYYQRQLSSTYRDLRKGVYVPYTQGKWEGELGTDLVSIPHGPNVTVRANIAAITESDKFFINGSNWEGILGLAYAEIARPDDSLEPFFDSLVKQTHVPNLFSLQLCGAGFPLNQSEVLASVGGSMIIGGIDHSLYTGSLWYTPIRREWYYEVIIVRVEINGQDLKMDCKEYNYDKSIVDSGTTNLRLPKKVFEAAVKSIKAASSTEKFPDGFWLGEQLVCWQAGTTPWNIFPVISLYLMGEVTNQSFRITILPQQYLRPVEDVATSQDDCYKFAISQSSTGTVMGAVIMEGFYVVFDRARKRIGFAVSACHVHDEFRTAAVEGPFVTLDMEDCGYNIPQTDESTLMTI

| SMILES | IC50 [1] [µM] | IC50 [2] [µM] |
| --- | --- | --- |
| CN1O[C@]2(C[C@@H]([C@@H]3CCCOC3)Oc3ccc(-c4cc(F)cc(F)c4)cc32)N=C1N (racemic) [Compound 323, (±)-(2S,4S)-6-(3,5-difluorophenyl)-2′-methyl-2-((R)-tetrahydro-2H-pyran-3-yl)-2′H-spiro[chroman-4,5′-[1,2,4]oxadiazol]-3′-amine] | 0.1 to 0.5 | 1 to 5 |
| CN1O[C@@]2(C[C@H](C3CCOc4ccccc43)Oc3ccc(-c4cccc(C#N)c4)cc32)N=C1N (stereo partly drawn) [Compound 331] | 0.1 to 0.5 | 5 to 10 |
| CN1C(=O)C2(CC3(CCCOC3)Oc3ccc(-c4cc(F)cc(F)c4)cc32)N=C1N (stereo not drawn) [Compound 314] | 0.1 to 0.5 | 0.5 to 1 |
| CC1CC[C@]2(CO1)C[C@]1(N=C(N)N(C)O1)c1cc(-c3ccc(F)c(Cl)c3)ccc1O2 (stereo partly drawn) [Compound 330] | 0.1 to 0.5 | 1 to 5 |
| CN1OC2(C[C@H]([C@@H]3CCOC(C)(C)C3)Oc3ccc(-c4cc(F)cc(Cl)c4)cc32)N=C1N (stereo partly drawn) [Compound 299] | 0.1 to 0.5 | 1 to 5 |
| CC1CC[C@]2(CO1)C[C@]1(N=C(N)N(C)O1)c1cc(-c3cccc(Cl)c3)ccc1O2 (stereo partly drawn) [Compound 303] | 0.1 to 0.5 | 1 to 5 |
| CN1OC2(CC3(CCCc4ccccc4C3)Oc3ccc(C#CC4CCCC4)cc32)N=C1N (stereo not drawn) [Compound 317] | 0.1 to 0.5 | 1 to 5 |
| CN1OC2(CC3(CCCc4ccccc4C3)Oc3ccc(Br)cc32)N=C1N (stereo not drawn) [Compound 349] | 0.5 to 1 | 1 to 5 |
| COc1ccc2c(c1)CCC[C@@]1(C2)C[C@@]2(N=C(N)N(C)O2)c2cc(-c3cccc(C#N)c3)ccc2O1 [Compound 311] | 0.1 to 0.5 | 0.5 to 1 |
| CN1OC2(CC3(CCCN(c4ccccc4)C3)Oc3ccc(-c4cccc(C#N)c4)cc32)N=C1N (stereo not drawn) [Compound 355] | 0.5 to 1 | 5 to 10 |
| CN1OC2(C[C@H]([C@@H]3CCOC(C)(C)C3)Oc3ccc(-c4cccc(C#N)c4F)cc32)N=C1N (stereo partly drawn) [Compound 306] | 0.1 to 0.5 | 1 to 5 |
| CN1OC2(CC(C3CCOC(C)(C)C3)Oc3ccc(-c4cccc(C(F)(F)F)c4)cc32)N=C1N (stereo not drawn) [Compound 297] | 0.1 to 0.5 | 1 to 5 |
| CN1OC2(CC3(CCCc4ncccc43)Oc3ccc(-c4cccc(C#N)c4)cc32)N=C1N (stereo not drawn) [Compound 320] | 0.1 to 0.5 | 1 to 5 |
| CN1OC2(CC3(CCc4ccccc4C3)Oc3ccc(-c4cccc(C#N)c4)cc32)N=C1N (stereo not drawn) [Compound 324] | 0.1 to 0.5 | 5 to 10 |
| CN1C(=O)C2(CC3(CCCOC3)Oc3ccc(-c4cc(C#N)ccc4F)cc32)N=C1N (stereo not drawn) [Compound 288] | 0.1 to 0.5 | 0.1 to 0.5 |
| CN1C(=O)C2(CC3(CCCOC3)Oc3ccc(-c4cccc(Cl)c4)cc32)N=C1N (stereo not drawn) [Compound 290] | 0.1 to 0.5 | 0.5 to 1 |
| CN1OC2(C[C@]3(CC4CCC3OC4)Oc3ccc(-c4cccc(C#N)c4)cc32)N=C1N (single isomer, unassigned) [Compound 403] | 1 to 5 | 5 to 10 |
| CN1OC2(C[C@H](C34CCC(CC3)OC4)Oc3ccc(-c4cccc(C#N)c4)cc32)N=C1N (stereo partly drawn) [Compound 345] | 0.1 to 0.5 | 5 to 10 |
| CN1OC2(C[C@@]3(CC4CCC3OC4)Oc3ccc(-c4cccc(C#N)c4)cc32)N=C1N (single isomer, unassigned) [Compound 408] | 1 to 5 | 5 to 10 |
| CN1C(=O)C2(C[C@@H](C3CCCc4ccccc43)Oc3ccc(-c4cccc(C#N)c4)cc32)N=C1N (stereo in doubt) [Compound 282, 3-(2′-amino-1′-methyl-5′-oxo-2-(1,2,3,4-tetrahydronaphthalen-1-yl)-1′,5′-dihydrospiro[chroman-4,4′-imidazole]-6-yl)benzonitrile] | 0.1 to 0.5 | 1 to 5 |
| COc1cc(OC)cc(-c2ccc3c(c2)[C@]2(C[C@@]4(CCCOC4)O3)N=C(N)N(C)C2=O)c1 [Compound 333] | 0.1 to 0.5 | 1 to 5 |
